This is an account of results in ChEMBL document CHEMBL1145124, “Identification and prediction of promiscuous aggregating inhibitors among known drugs” (J Med Chem, 2003).

Data set [1] deals with Chymotrypsinogen A (Bos taurus) (UniProt P00766). The data set is described as follows: Compound was tested for the inhibition of Chymotrypsinogen at 400 uM.
Data set [2] concerns the target T1, Beta-lactamase (Escherichia coli K-12, UniProt P00811). Kind of data set: Compound was tested for the inhibition of beta-lactamase.
The nature of data set [3]: Mean maximal plasma concentration. The format is ADME, organism-based.
In data set [4] the target is T2, Malate dehydrogenase, mitochondrial (Sus scrofa, UniProt P00346).
T2 sequence (P00346 whole entry): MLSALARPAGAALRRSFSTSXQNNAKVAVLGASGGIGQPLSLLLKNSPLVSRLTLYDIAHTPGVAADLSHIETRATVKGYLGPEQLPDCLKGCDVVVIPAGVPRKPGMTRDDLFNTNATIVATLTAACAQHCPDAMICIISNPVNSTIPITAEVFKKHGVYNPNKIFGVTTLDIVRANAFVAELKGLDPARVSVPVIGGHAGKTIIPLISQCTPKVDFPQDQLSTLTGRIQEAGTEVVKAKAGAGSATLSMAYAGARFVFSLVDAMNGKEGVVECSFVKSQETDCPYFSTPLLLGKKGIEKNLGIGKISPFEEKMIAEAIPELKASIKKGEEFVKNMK
Kind of data set: Fold increase in IC50 vs malate dehydrogenase (MDH) with 1 mg/ml saponin; increase.

Data set [5] concerns the target Beta-lactamase (Escherichia coli K-12) (UniProt P00811). The data set is described as follows: Inhibition of beta-lactamase at 100 uM.
Data set [6] has as its target Chymotrypsinogen A (Bos taurus) (UniProt P00766). Kind of data set: Compound was tested for the inhibition of Chymotrypsinogen at 250 uM (Inhibition is time dependent).
In data set [7] the target is T3, Malate dehydrogenase, cytoplasmic (Homo sapiens) (UniProt P40925).
T3 sequence (whole entry): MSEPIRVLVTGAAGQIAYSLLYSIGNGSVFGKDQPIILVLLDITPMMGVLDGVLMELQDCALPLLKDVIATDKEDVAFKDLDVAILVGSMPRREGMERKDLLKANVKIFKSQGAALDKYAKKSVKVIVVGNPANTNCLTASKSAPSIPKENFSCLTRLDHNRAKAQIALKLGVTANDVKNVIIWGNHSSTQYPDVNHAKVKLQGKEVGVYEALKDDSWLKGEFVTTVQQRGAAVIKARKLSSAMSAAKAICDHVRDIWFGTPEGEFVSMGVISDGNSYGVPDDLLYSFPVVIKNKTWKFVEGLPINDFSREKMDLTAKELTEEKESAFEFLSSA
The data set is described as follows: Inhibition of malate dehydrogenase (MDH) at 400 uM.

The target of data set [8] is T4, Chymotrypsinogen A (Bos taurus, UniProt P00766). Kind of data set: Compound was tested for the inhibition of Chymotrypsinogen.
In data set [9] the target is T4, Chymotrypsinogen A. Kind of data set: Fold decrease in IC50 vs chymotrypsinogen on pre-incubation; increase.
Data set [10] in a line: Topical dosage on […] scabies. It is filed as functional.
Data set [11] has as its target T1, Beta-lactamase. The data set is described as follows: Effect of pre-incubation with enzyme on the inhibition of beta-lactamase:No inhibition.
Data set [12] has as its target T1, Beta-lactamase. The data set is described as follows: Effect of increase in enzyme concentration by 10 times on the inhibition of beta-lactamase by the compound:No inhibition.
Data set [13] addresses T1, Beta-lactamase. The data set is described as follows: Compound was tested for the inhibition beta-lactamase with 0.1 mg/ml saponin:No inhibition.
For data set [14], the target named is T2, Malate dehydrogenase, mitochondrial. The data set is described as follows: Fold decrease in IC50 vs malate dehydrogenase (MDH) on pre-incubation; no change.

Some results are limits rather than exact numbers.

T1 sequence (P00811 whole entry): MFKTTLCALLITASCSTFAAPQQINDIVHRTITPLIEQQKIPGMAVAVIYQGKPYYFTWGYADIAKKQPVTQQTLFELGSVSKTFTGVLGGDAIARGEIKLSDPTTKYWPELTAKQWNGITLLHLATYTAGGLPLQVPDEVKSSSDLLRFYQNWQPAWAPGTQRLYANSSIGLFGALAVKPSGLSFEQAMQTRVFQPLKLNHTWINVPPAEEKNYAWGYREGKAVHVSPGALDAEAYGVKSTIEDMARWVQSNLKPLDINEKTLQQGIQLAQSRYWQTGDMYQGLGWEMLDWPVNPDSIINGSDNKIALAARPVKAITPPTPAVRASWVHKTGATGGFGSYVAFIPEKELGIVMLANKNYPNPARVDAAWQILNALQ
Sequence of Beta-lactamase (Escherichia coli K-12) (P00811 whole entry): as above

Broadly, the inhibition is the change of the read-out against control, counted positive when it falls. Read a low inhibition as little suppression. One may read the IC50 as the concentration that inhibits the measured activity by half. What is called Cmax is the maximum level reached in the sampled fluid or tissue. In the case of `Cc1cccc(Nc2ccccc2C(=O)O)c1C` [MEFENAMIC ACID], in data set [1], the inhibition came out at 41%. Further, the half-maximal inhibitory concentration (IC50) on Beta-lactamase [2] was 350 µM; in data set [4], “increase”. Further, in data set [3], the concentration peaked (Cmax) at 83 µM.

Consider `CC(C)[N+](C)(CCOC(=O)C1c2ccccc2Oc2ccccc21)C(C)C`, for which the inhibition in data set [5] is below 5%; in data set [6] it was 96%; in data set [7], below 5%.

`O=C(O)CCc1nc(-c2ccccc2)c(-c2ccccc2)o1` [OXAPROZIN]: the results for the half-inhibitory concentration (IC50) at Chymotrypsinogen A [8], against Chymotrypsinogen A [9] and against Beta-lactamase [2] were 200 µM, “Increase” and above 400 µM, respectively. The same compound had a peak concentration (Cmax) in [3] of 372 µM.

Turning to `O=C(OCc1ccccc1)c1ccccc1` [BENZYL BENZOATE], the IC50 was found to be 250 µM at Chymotrypsinogen A [8] and 90 µM at Beta-lactamase [2]. The compound further showed a Topical dosage in data set [10] of 1.2 M.

Turning to `CC(=O)N1CCN(c2ccc(OCC3COC(Cn4ccnc4)(c4ccc(Cl)cc4Cl)O3)cc2)CC1` (configuration not stated) [KETOCONAZOLE], the concentration for half-maximal inhibition (IC50) entry on Beta-lactamase [11] was “Not Active”; against Chymotrypsinogen A [8] it was above 150 µM; against Beta-lactamase [12], “Not Active”; on Beta-lactamase [13] it was “Not Active”; at Beta-lactamase [2] it was above 150 µM.

As to `OC(Cn1cncn1)(Cn1cncn1)c1ccc(F)cc1F` [FLUCONAZOLE], the IC50 entry on Beta-lactamase [11] is “Not Active”; against Chymotrypsinogen A [8], above 400 µM; at Beta-lactamase [12], “Not Active”; at Beta-lactamase [13], “Not Active”; against Beta-lactamase [2] it was above 400 µM.

With `COC(=O)C1=C(C)NC(C)=C(C(=O)OCCN(C)Cc2ccccc2)C1c1cccc([N+](=O)[O-])c1` (configuration not stated) [NICARDIPINE], the concentration for half-maximal inhibition (IC50) is 175 µM against Chymotrypsinogen A [8] and “Not Active” in [14]. In data set [3], this compound displayed a Cmax of 0.184 µM.
